Assay results as given in US20240368120A1 (Terns Pharmaceuticals, Inc., priority 2023, published 2024).

Target: T1, human GLP-1R receptor (Homo sapiens, UniProt P43220)
T1 construct: expressed in transfected cells
Assay: GLP-1R low expression cell assay (cAMP TR-FRET, CHO-K1_hGLP-1Rlow_clone10 cells)
Format: cell-based
Conditions: for EC50: cAMP TR-FRET, 30 min at 25° C.; for Emax: maximum activation relative to control GLP-1 peptide agonist
Procedure: Stable cell lines expressing high and low GLP-1R surface expression were generated in CHO-K1 cells transfected (Fugene 6) with a puromycin selectable DNA plasmid encoding human GLP-1R receptor (accession number: NM_002062.5) under control of an EF1A promoter. Transfected cells were seeded into 24-well plates (9,000 cells/well) containing complete medium and incubated in a humidified incubator at 37° C. with 5% carbon dioxide. After overnight incubation, medium was replaced with complete medium supplemented with puromycin (6 μg/mL) and refreshed every 2-3 days to select for stably transfected cells. Individual pools of selected cells were expanded prior to analysis for responsiveness to GLP-1 control peptide using a TR-FRET assay to detect cAMP (LANCE Ultra CAMP Assay, Perkin Elmer). Briefly, cells were collected in Versene solution, plated in 384-well plates (1,000 cells/well) and combined with serially diluted GLP-IR control peptide (10 nL) using an acoustic dispenser (ECHO). Plates were incubated for 30 minutes at 25° C. prior to the addition of EU-CAMP tracer (5 μL) and Ulight-anti-CAMP (5 μL) reagents to each well, followed by 15 minutes incubation at 25° C. TR-FRET signal was detected using an En Vision Multimode Plate Reader (excitation=320 nm; emission=615 and 655 nm). Dose-response curves were used to generate EC50 values as a measure of responsiveness to the GLP-IR control peptide. Selected cell lines were monitored for responsiveness over multiple passages to ensure stability. […] Briefly, GLP-IR expression was analyzed by flow cytometry using a fluorescein-labeled Exendin-4 peptide fluorescent probe (FLEX). Cells were harvested in Versene solution and washed 3-times with PBS+0.5% BSA before incubation with FLEX reagent (10 μM) for 2 hours at room temperature. After incubation, cells were washed 3-times in PBS+0.5% BSA before final resuspension in PBS prior to analysis by flow cytometry to measure FLEX mean fluorescence intensity (MFI) as a measure of GLP-IR expression on the cell surface.
For compound testing in the CHO-K1_hGLP-IRlow_clone10 cell line, cells were seeded in 384-well plates (1,000 cells/well). Test compounds were serially diluted in DMSO (10-point, 3-fold dilution), added to wells using an ECHO dispenser (10 nL/well) and plates were centrifuged for 1 min and agitated for 2 min at room temperature prior to 30-minute incubation at 25° C. After incubation, Eu-CAMP (5 μL) and Ulight-anti-cAMP (5 μL) reagents were added to each well, followed by centrifugation for 1 minute, agitation for 2 minutes at room temperature, and final incubation of the plates at 25° C. for 15 minutes. Plates were read using an EnVision microplate reader (excitation=320 nm; emission=615 and 655 nm). Dose-response curves were generated from duplicate wells based on percent activation calculated relative to a control GLP-1 peptide agonist that was run in parallel. EC50 values were determined by fitting percent activation as a function of compound concentration using the Hill equation (XLfit).
The compounds tested were compound samples prepared according to the General Procedures described in the Examples section.

T1 sequence (P43220 24-463): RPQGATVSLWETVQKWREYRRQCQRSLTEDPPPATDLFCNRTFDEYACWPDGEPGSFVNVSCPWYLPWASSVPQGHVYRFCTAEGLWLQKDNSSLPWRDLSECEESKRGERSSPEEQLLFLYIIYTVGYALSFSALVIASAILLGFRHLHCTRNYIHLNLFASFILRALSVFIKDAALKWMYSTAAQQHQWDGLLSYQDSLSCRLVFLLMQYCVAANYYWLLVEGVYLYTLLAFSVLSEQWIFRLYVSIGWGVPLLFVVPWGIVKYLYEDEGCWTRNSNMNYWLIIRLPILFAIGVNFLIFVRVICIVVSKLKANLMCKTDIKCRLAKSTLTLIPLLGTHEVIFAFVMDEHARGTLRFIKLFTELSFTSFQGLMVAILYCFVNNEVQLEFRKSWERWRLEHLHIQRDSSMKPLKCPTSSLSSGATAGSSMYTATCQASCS

Row | Compound | EC50 [nM] | Emax [%]
1 | Cn1c(CN2CCC(c3cccc(OCc4ccc(C#N)cc4F)n3)CC2)nc2c(OC(C)(C)C)cc(C(=O)O)cc21 [Compound 135, 4-(tert-Butoxy)-2-((4-(6-((4-cyano-2-fluorobenzyl)oxy)pyridin-2-yl)piperidin-1-yl)methyl)-1-methyl-1H-benzo[d]imidazole-6-carboxylic acid] | 100 to 1000 | > 85
2 | COc1ccc(C2CCN(Cc3nc4c(OC(F)F)cc(C(=O)O)cc4n3C)CC2)cc1OCc1ccc(Cl)cc1F [Compound 230, 2-((4-(3-((4-Chloro-2-fluorobenzyl)oxy)-4-methoxyphenyl)piperidin-1-yl)methyl)-4-(difluoromethoxy)-1-methyl-1H-benzo[d]imidazole-6-carboxylic acid] | > 1000 | < 25
3 | Cn1c(CN2CCC(c3nccc(OCc4ccc(Cl)cc4F)n3)CC2)nc2c(OC(F)F)cc(C(=O)O)cc21 [Compound 168, 2-((4-(4-((4-Chloro-2-fluorobenzyl)oxy)pyrimidin-2-yl)piperidin-1-yl)methyl)-4-(difluoromethoxy)-1-methyl-1H-benzo[d]imidazole-6-carboxylic acid] | 10 to 100 | > 85
4 | CC(=O)Nc1cc(C(=O)O)cc2c1nc(CN1CCC(c3cccc(OCc4ccc(C#N)cc4F)n3)CC1)n2C [Compound 116, 4-acetamido-2-((4-(6-((4-cyano-2-fluorobenzyl)oxy)pyridin-2-yl)piperidin-1-yl)methyl)-1-methyl-1H-benzo[d]imidazole-6-carboxylic acid] | 10 to 100 | > 85
5 | Cn1c(CN2CCC(c3cccc(OCc4cc(F)c(C#N)cc4F)n3)CC2)nc2c(OC(F)F)cc(C(=O)O)cc21 [Compound 366, 2-((4-(6-((4-Cyano-2,5-difluorobenzyl)oxy)pyridin-2-yl)piperidin-1-yl)methyl)-4-(difluoromethoxy)-1-methyl-1H-benzo[d]imidazole-6-carboxylic acid] | < 10 | > 85
6 | Cn1c(CN2CCC(c3cccc(OCc4ccc(C(F)(F)F)cc4)n3)CC2)nc2c(OC(F)F)cc(C(=O)O)cc21 [Compound 203, 4-(difluoromethoxy)-1-methyl-2-((4-(6-((4-(trifluoromethyl)benzyl)oxy)pyridin-2-yl)piperidin-1-yl)methyl)-1H-benzo[d]imidazole-6-carboxylic acid] | 10 to 100 | > 85
7 | COc1cc(C(=O)O)cc2c1nc(N(C)[C@H]1CC[C@@H](c3cccc4c3O[C@@](C)(c3ccc(Cl)cn3)O4)CC1)n2C[C@@H]1CCO1 [Compound 79, 2-(((1R,4R)-4-((S)-2-(5-chloropyridin-2-yl)-2-methylbenzo[d][1,3]dioxol-4-yl)cyclohexyl)(methyl)amino)-4-methoxy-1-(((S)-oxetan-2-yl)methyl)-1H-benzo[d]imidazole-6-carboxylic acid] | 100 to 1000 | > 85
8 | CCOc1cc(C(=O)NS(C)(=O)=O)cc2c1nc(CN1CCC(c3cccc(OCc4ccc(C#N)cc4F)n3)CC1)n2C [Compound 261, 2-((4-(6-((4-Cyano-2-fluorobenzyl)oxy)pyridin-2-yl)piperidin-1-yl)methyl)-4-ethoxy-1-methyl-N-(methylsulfonyl)-1H-benzo[d]imidazole-6-carboxamide] | 10 to 100 | > 85
9 | O=C(O)c1cc(OCF)c2c(c1)nc(CN1CCC(c3cccc(OCc4ccc(Cl)cc4F)n3)CC1)n2CF [Compound 347, 2-((4-(6-((4-Chloro-2-fluorobenzyl)oxy)pyridin-2-yl)piperidin-1-yl)methyl)-7-(fluoromethoxy)-1-(fluoromethyl)-1H-benzo[d]imidazole-5-carboxylic acid] | > 1000 | 25 to 50
10 | Cn1c(CN2CCC(c3cccc(OCc4ccc(C#N)cc4F)n3)CC2)nc2c(OC(F)(F)F)cc(C(=O)O)cc21 [Compound 125, 2-((4-(6-((4-Cyano-2-fluorobenzyl)oxy)pyridin-2-yl)piperidin-1-yl)methyl)-1-methyl-4-(trifluoromethoxy)-1H-benzo[d]imidazole-6-carboxylic acid] | 10 to 100 | > 85
